Reference: patent publication US20250129104A1, “7H-PYRROLO[2,3-D]PYRIMIDINES AND PREPARATION AND USES THEREOF” (BioSplice Therapeutics, Inc., priority 2021, published 2025)

These compounds were tested against recombinant DYRK1A kinase (Homo sapiens (Human), UniProt Q13627) (assay: DYRK1A kinase assay (Ser/Thr 18 peptide Z-lyte FRET assay)). Conditions: DYRK1A kinase activity; 15 μM ATP, 1 h room temperature; method text calls the value IC50.
Format: biochemical
Protocol: Representative compounds were screened using the assay procedure for DYRK1A kinase activity as described below.
Each compound was dissolved in DMSO as a 10 mM stock and used to prepare compound source plates. Serial dilution (1:3, 11-point dose-response curves from 10 μM to 0.00016 μM) and compound transfer was performed using the ECHO 550 (Labcyte, Sunnyvale, CA) into 1536-well black-walled round bottom plates (Corning).
The DYRK1A kinase assay was run using the Ser/Thr 18 peptide Z-lyte assay kit according to manufacturer's instructions (Life Technologies—a Division of Thermo-Fisher). This is a non-radioactive assay using fluorescence resonance energy transfer (FRET) between coumarin and fluorescein to detect kinase activity which is represented as a ratio of coumarin emission/fluorescein emission.
Briefly, recombinant DYRK1A kinase, ATP and Ser/Thr peptide 18 were prepared in 1× Kinase buffer to final concentrations of 0.25 μg/mL, 15 μM, and 4 μM respectively. The mixture was allowed to incubate with the representative compounds for one hour at room temperature. All reactions were performed in duplicate. Unphosphorylated (“0% Control”) and phosphorylated (“100% control”) forms of Ser/Thr 18 served as control reactions. Additionally, an 11-point dose-response curve of Staurosporine (1 uM top) was run to serve as a positive compound control.
After incubation, Development Reagent A was diluted in Development Buffer then added to the reaction and allowed to further incubate for one hour at room temperature. The plate was read at Ex 400 Em […] to detect the coumarin signal and Ex 400 Em 520 to measure the signal (EnVision Multilabel Plate Reader, PerkinElmer).
The Emission ratio (Em) was calculated as a ratio of the coumarin (C) emission signal (at 445 nm)/Fluorescein (F) emission signal (at 520 nm). The percent phosphorylation was then calculated using the following formula: [1−((Em ratio×F100%)−C100%)/((C0%−C100%)+(Em ratio×(F100%−F0%)))]. Dose-response curves were generated, and inhibitory concentration (IC50) values were calculated using non-linear regression curve fit in the Dotmatics' Studies Software (Bishops Stortford, UK).

| Compound | EC50 |
| --- | --- |
| COc1nc(N[C@H](C)C(F)(F)F)nc2[nH]cc(-c3cc(F)c4nccn4c3)c12 [Compound 2183, (R)-5-(8-Fluoroimidazo[1,2-a]pyridin-6-yl)-4-methoxy-N-(1,1,1-trifluoropropan-2-yl)-7H-pyrrolo[2,3-d]pyrimidin-2-amine] | 10.4 nM |
| CN1CCN(c2ncnc3ccc(-c4c[nH]c5nc(C6CC6)ncc45)cc23)CC1 [Compound 1987, 6-(2-Cyclopropyl-7H-pyrrolo[2,3-d]pyrimidin-5-yl)-4-(4-methylpiperazin-1-yl)quinazoline] | 70.4 nM |
| CC(C)(F)CNc1ncc2c(-c3ccc(OC(F)F)nc3)c[nH]c2n1 [Compound 7] | > 10000 nM |
| Cc1nc2c(F)cc(-c3c[nH]c4nc(NCC5CN(C)C5)ncc34)cc2n1C [Compound 493, 5-(4-Fluoro-1,2-dimethyl-1H-benzo[d]imidazol-6-yl)-N-((1-methylazetidin-3-yl)methyl)-7H-pyrrolo[2,3-d]pyrimidin-2-amine] | 4700 nM |
| Cc1nc2ncc(-c3c[nH]c4nc(CC(C)C)ncc34)cc2n1C(C)C [Compound 585, 6-(2-Isobutyl-7H-pyrrolo[2,3-d]pyrimidin-5-yl)-1-isopropyl-2-methyl-1H-imidazo[4,5-b]pyridine] | 17.9 nM |
| 5-(1-(2,2-Difluoroethyl)-1H-benzo[d][1,2,3]triazol-6-yl)-N-(2-fluoro-2-methylpropyl)-4-methoxy-7H-pyrrolo[2,3-d]pyrimidin-2-amine [Compound 2292] | 17.4 nM |
| CO[C@H]1CC[C@@H](Nc2ncc3c(-c4cc(F)c5nccn5c4)c[nH]c3n2)CC1 [Compound 216, 5-(8-Fluoroimidazo[1,2-a]pyridin-6-yl)-N-(cis-4-methoxycyclohexyl)-7H-pyrrolo[2,3-d]pyrimidin-2-amine] | 14.9 nM |
| CCOc1nc(N[C@H](C)C(F)(F)F)nc2[nH]cc(-c3cc(F)c4nccn4c3)c12 [Compound 2189, (R)-4-Ethoxy-5-(8-fluoroimidazo[1,2-a]pyridin-6-yl)-N-(1,1,1-trifluoropropan-2-yl)-7H-pyrrolo[2,3-d]pyrimidin-2-amine] | 8.1 nM |
| CO[C@H]1C[C@@H](Nc2ncc3c(-c4ccc5ncccc5c4)c[nH]c3n2)C1 [Compound 2075, N-(cis-3-Methoxycyclobutyl)-5-(quinolin-6-yl)-7H-pyrrolo[2,3-d]pyrimidin-2-amine] | 8 nM |
| COc1nc(N[C@H]2CC[C@@H](OC)CC2)nc2[nH]cc(-c3ccn4nccc4c3)c12 [Compound 2306, 4-Methoxy-N-(cis-4-methoxycyclohexyl)-5-(pyrazolo[1,5-a]pyridin-5-yl)-7H-pyrrolo[2,3-d]pyrimidin-2-amine] | 171 nM |
| Cc1cn2nc(-c3c[nH]c4nc(NCC(C)(C)F)ncc34)ccc2n1 [Compound 995, N-(2-Fluoro-2-methylpropyl)-5-(2-methylimidazo[1,2-b]pyridazin-6-yl)-7H-pyrrolo[2,3-d]pyrimidin-2-amine] | 9.3 nM |
| COc1nc(NC2CCOCC2)nc2[nH]cc(-c3ccn4nccc4n3)c12 [Compound 2224, 4-Methoxy-5-(pyrazolo[1,5-a]pyrimidin-5-yl)-N-(tetrahydro-2H-pyran-4-yl)-7H-pyrrolo[2,3-d]pyrimidin-2-amine] | 10.7 nM |
| COC[C@@H](C)Nc1nc(OC)c2c(-c3cc(F)c4nccn4c3)c[nH]c2n1 [Compound 2184] | 69.9 nM |
| CC(C)(C)CNc1ncc2c(-c3ccc4nccn4n3)c[nH]c2n1 [Compound 907, 5-(Imidazo[1,2-b]pyridazin-6-yl)-N-neopentyl-7H-pyrrolo[2,3-d]pyrimidin-2-amine] | 8.8 nM |
| COc1nc(N[C@H]2CC[C@@H](OC(F)(F)F)CC2)nc2[nH]cc(-c3cc(F)c4nccn4c3)c12 [Compound 2260, 5-(8-Fluoroimidazo[1,2-a]pyridin-6-yl)-4-methoxy-N-(cis-4-(trifluoromethoxy)cyclohexyl)-7H-pyrrolo[2,3-d]pyrimidin-2-amine] | 245 nM |

Continued by falling EC50, values first:

| EC50 | Compound |
| --- | --- |
| 7.9 nM | COc1nc(NCC(C)(C)F)nc2[nH]cc(-c3ccc4nccn4c3)c12 [Compound 2240, N-(2-Fluoro-2-methylpropyl)-5-(imidazo[1,2-a]pyridin-6-yl)-4-methoxy-7H-pyrrolo[2,3-d]pyrimidin-2-amine] |
| 7.8 nM | c1cnc2cc(-c3c[nH]c4nc(NC5CCOCC5)ncc34)ccc2n1 [Compound 1934, 5-(Quinoxalin-6-yl)-N-(tetrahydro-2H-pyran-4-yl)-7H-pyrrolo[2,3-d]pyrimidin-2-amine] |
| 6.9 nM | Cn1nnc2ccc(-c3c[nH]c4nc(N[C@H]5CC[C@@H](OCC(F)F)CC5)ncc34)cc21 [Compound 2192, N-(cis-4-(2,2-Difluoroethoxy)cyclohexyl)-5-(1-methyl-1H-benzo[d][1,2,3]triazol-6-yl)-7H-pyrrolo[2,3-d]pyrimidin-2-amine] |
| 6.4 nM | CN1CCN(c2ccc(Nc3ncc4c(-c5cc6cnccc6s5)c[nH]c4n3)cn2)CC1 [Compound 93, N-(6-(4-Methylpiperazin-1-yl)pyridin-3-yl)-5-(thieno[3,2-c]pyridin-2-yl)-7H-pyrrolo[2,3-d]pyrimidin-2-amine] |
| 6 nM | c1cnc2ccc(-c3c[nH]c4nc(NC5CCOCC5)ncc34)cc2c1 [Compound 1890, 5-(Quinolin-6-yl)-N-(tetrahydro-2H-pyran-4-yl)-7H-pyrrolo[2,3-d]pyrimidin-2-amine] |
| 5.9 nM | C[C@]1(O)CC[C@@H](Nc2ncc3c(-c4ccn5nccc5c4)c[nH]c3n2)CC1 [Compound 2234, cis-1-Methyl-4-((5-(pyrazolo[1,5-a]pyridin-5-yl)-7H-pyrrolo[2,3-d]pyrimidin-2-yl)amino)cyclohexan-1-ol] |
| 4.8 nM | C[C@@H](Nc1ncc2c(-c3ccc4nnn(C)c4c3)c[nH]c2n1)C(F)(F)F [Compound 825, (R)-5-(1-Methyl-1H-benzo[d][1,2,3]triazol-6-yl)-N-(1,1,1-trifluoropropan-2-yl)-7H-pyrrolo[2,3-d]pyrimidin-2-amine] |
| 4.2 nM | COc1nc(N[C@H]2CC[C@@](C)(O)CC2)nc2[nH]cc(-c3ccc4nnn(C)c4c3)c12 [Compound 3120, cis-4-((4-Methoxy-5-(1-methyl-1H-benzo[d][1,2,3]triazol-6-yl)-7H-pyrrolo[2,3-d]pyrimidin-2-yl)amino)-1-methylcyclohexan-1-ol] |
| 3.6 nM | N-(cis-4-(Methoxy-d3)cyclohexyl)-5-(pyrazolo[1,5-a]pyrimidin-5-yl)-7H-pyrrolo[2,3-d]pyrimidin-2-amine [Compound 2221] |
| 3.2 nM | C[C@]1(O)CC[C@@H](Nc2ncc3c(-c4ccn5nccc5n4)c[nH]c3n2)CC1 [Compound 3426, (1s,4s)-1-Methyl-4-((5-(pyrazolo[1,5-a]pyrimidin-5-yl)-7H-pyrrolo[2,3-d]pyrimidin-2-yl)amino)cyclohexan-1-ol] |
| 2.6 nM | OCCO[C@H]1CC[C@@H](Nc2ncc3c(-c4ccc5nccnc5c4)c[nH]c3n2)CC1 [Compound 2229, 2-((cis-4-((5-(Quinoxalin-6-yl)-7H-pyrrolo[2,3-d]pyrimidin-2-yl)amino)cyclohexyl)oxy)ethan-1-ol] |
| 2.2 nM | C[C@]1(O)CC[C@@H](Nc2ncc3c(-c4cc(F)c5nccn5c4)c[nH]c3n2)CC1 [Compound 2179, cis-4-((5-(8-Fluoroimidazo[1,2-a]pyridin-6-yl)-7H-pyrrolo[2,3-d]pyrimidin-2-yl)amino)-1-methylcyclohexan-1-ol] |
| 1.9 nM | CO[C@H]1C[C@@H](Nc2ncc3c(-c4ccc5nccn5n4)c[nH]c3n2)C1 [Compound 2053, 5-(Imidazo[1,2-b]pyridazin-6-yl)-N-(cis-3-methoxycyclobutyl)-7H-pyrrolo [2,3-d]pyrimidin-2-amine] |
| 1.7 nM | Cc1nc2c(F)cc(-c3c[nH]c4nc(NCC(C)C)ncc34)cc2n1C(C)C [Compound 506, 5-(4-Fluoro-1-isopropyl-2-methyl-1H-benzo[d]imidazol-6-yl)-N-isobutyl-7H-pyrrolo[2,3-d]pyrimidin-2-amine] |
| 1.2 nM | COc1nc(N[C@H]2CC[C@@H](OC)CC2)nc2[nH]cc(-c3ccc4ncnn4c3)c12 [Compound 3047, 5-([1,2,4]Triazolo[1,5-a]pyridin-6-yl)-4-methoxy-N-(cis-4-methoxycyclohexyl)-7H-pyrrolo[2,3-d]pyrimidin-2-amine] |
| 1.1 nM | COc1nc(N[C@H]2CC[C@](C)(O)CC2)nc2[nH]cc(-c3ccc4nccn4c3)c12 [Compound 2378, trans-4-((5-(Imidazo[1,2-a]pyridin-6-yl)-4-methoxy-7H-pyrrolo[2,3-d]pyrimidin-2-yl)amino)-1-methylcyclohexan-1-ol] |
| 0.7 nM | COc1nc(N[C@H]2CC[C@@H](OC)CC2)nc2[nH]cc(-c3ccc4nccnc4c3)c12 [Compound 3575, 4-Methoxy-N-(cis-4-methoxycyclohexyl)-5-(quinoxalin-6-yl)-7H-pyrrolo[2,3-d]pyrimidin-2-amine] |
